Laboratory results: patent US11413278B2, “Compounds and methods for promoting stress resistance” (priority 2015, dated 2022)
pEC50: −log10 of the molar value. Where two headings read alike, the source gives them in different places.

Tests used:
human PARP1 = target: T1, human PARP1 (Homo sapiens, UniProt P09874); experiment: PARP inhibitor assay (HT Fluorescent Homogeneous PARP Inhibition Assay Kit); format: biochemical; settings: score
T1 construct: purchased Trevigen
Procedure, shortened: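 Human PARP1 with NAD and activated DNA, compounds at 10 μM final, 30 min at room temperature in dark. Resazurin/diaphorase cycling mix then added for 1 hr in dark before stop buffer; fluorescent homogeneous kit read-out.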

C. elegans = C. elegans lifespan assays (liquid and plate); format: in vivo, Caenorhabditis elegans; settings: for ILS at 60 µM / ILS at 66 µM: Caenorhabditis elegans; for O = Life span- extending scores in worms: score scale 0 to 2, 4 to 6 independent trials; for M = Lifespan-extending scores in worms: summary score
WI-38 cells [1] = experiment: MMS resistance assay; format: cell-based, human; settings: for fold induction at 10 µM: Homo sapiens, 12 h, normalized ATP measurement; for Assay 3: MMS-resistant / Assay 5: Triple resistant: YES/NO; for Assay 3: MMS-resistant: * indicates partial; for Assay 5: Triple resistant: H2O2, cadmium and MMS
Procedure, shortened: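 WI-38 cells were given compounds at five final concentrations (0.25–20 μM) in triplicate, followed by cadmium or MMS for 12 h. For MMS, medium was switched from OptiMEM+10% FBS to serum-free DMEM+2% BSA when compounds were added, 24 h before stressor. Two independent assays were run, analysed by global variance t-test.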

[2] = tested on: phosphorylated γH2A.X and TP53BP1; experiment: DNA damage marker analysis (immuno-staining); settings: for activity at 10 µM: Homo sapiens, WI-38, 24 h
Procedure, shortened: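 WI-38 cells were cultured 24 h, then treated with compounds for 24 h; H2O2 (700 μM, 3 h) and doxorubicin (300 nM, 24 h) served as DNA-damage controls. After fixation, cells were immunostained for phospho-γH2A.X (Ser-139) and phospho-TP53BP1 (Ser-1778), counterstained with DAPI, and imaged by automated high-content microscopy.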

[3] = tested on: PC12 cells expressing poly(Q)103-Htt-EGFP; experiment: Poly(Q) toxicity & viability analysis (cellular model of Huntington's disease); format: cell-based, rat; settings: for Viability of PC12 cells upon induction of toxic poly(Q)103-Htt-EGFP aggregates: 2.5 μM, 5 μM, 10 μM and 20 μM; for Assay 20: Huntington's poly-Q toxicity attenuation: 10 uM, YES/NO; for M = Huntington's poly-Q toxicity attenuation: score; for K = Huntington's poly-Q toxicity attenuation: summary score
Procedure, shortened: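 PC12 cells stably carrying inducible poly(Q)103-Htt-EGFP, whose induced expression causes aggregation and toxicity. Viability read 48 hrs later as ATP content by CellTiter-Glo.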

WI-38 cells [4] = settings: for No H2O2 stress treatment, at 10 uM (fold change): normalized ATP measurement; for Assay 1: H2O2-resistant: YES/NO, if NO, possibly due to repeated freezing/thawing of stocks
[5] = in liquid, wild type, with FuDR, 1.0 × 10^9 bacteria/ml, read-out: relative change of mean lifespan vs control, Trial 1
[6] = in liquid, wild type, with FuDR, 2.5 × 10^9 bacteria/ml, read-out: relative change of mean lifespan vs control, Trial 2
[7] = on plate, CF512 temperature-sensitive sterile animals, without FuDR, 2.0 × 10^10 bacteria/ml, read-out: relative change of mean lifespan vs control, Trial 3
[8] = Assay 2(z), 1.0 × 10^9 bacteria/ml, wild type + FuDR (2012 July), read-out: Lifespan assay in liquid
[9] = Assay 3(aa), 2.5 × 10^9 bacteria/ml, wild type + FuDR, read-out: Lifespan assay in liquid
[10] = Assay 4(ab), 2.0 × 10^10 bacteria/ml, CF512 worms, no FuDR, read-out: Lifespan assay on plates
[11] = Exp. 1, WI-38 cells, read-out: Exp. 1, under MMS stress treatment, at 10 uM (fold change)
[12] = Exp. 2, WI-38 cells, read-out: Exp. 2, under MMS stress treatment, at 10 uM (fold change)
[13] = score in summary of 38 core set hits
[14] = read-out: Experiment 1, H2A.X-P DNA damage foci staining (no H2O2 stress treatment), at 10 uM
[15] = read-out: Experiment 2, H2A.X-P DNA damage foci staining (no H2O2 stress treatment), at 10 uM
[16] = read-out: Experiment 2, H2A.X-P DNA damage foci staining (under H2O2 stress treatment), at 10 uM
[17] = read-out: Experiment 2, TP53BP1-P DNA damage foci staining (no H2O2 stress treatment), at 10 uM
[18] = read-out: Experiment 2, TP53BP1-P DNA damage foci staining (under H2O2 stress treatment), at 10 uM
[19] = WI-38 cells, 10 μM, (*) = compromised ability to protect cells from H2O2, could be due to stability issue
[20] = asterisks indicate the loss of the ability to protect cells from H2O2 over time
[21] = derived from dose response curves, 0.6-20 uM, H2O2-resistance of WI-38 cells
[22] = read-out: Est. ED50, dose response 0.6-20 μM, H2O2-resistance

T1 sequence (P09874 whole entry): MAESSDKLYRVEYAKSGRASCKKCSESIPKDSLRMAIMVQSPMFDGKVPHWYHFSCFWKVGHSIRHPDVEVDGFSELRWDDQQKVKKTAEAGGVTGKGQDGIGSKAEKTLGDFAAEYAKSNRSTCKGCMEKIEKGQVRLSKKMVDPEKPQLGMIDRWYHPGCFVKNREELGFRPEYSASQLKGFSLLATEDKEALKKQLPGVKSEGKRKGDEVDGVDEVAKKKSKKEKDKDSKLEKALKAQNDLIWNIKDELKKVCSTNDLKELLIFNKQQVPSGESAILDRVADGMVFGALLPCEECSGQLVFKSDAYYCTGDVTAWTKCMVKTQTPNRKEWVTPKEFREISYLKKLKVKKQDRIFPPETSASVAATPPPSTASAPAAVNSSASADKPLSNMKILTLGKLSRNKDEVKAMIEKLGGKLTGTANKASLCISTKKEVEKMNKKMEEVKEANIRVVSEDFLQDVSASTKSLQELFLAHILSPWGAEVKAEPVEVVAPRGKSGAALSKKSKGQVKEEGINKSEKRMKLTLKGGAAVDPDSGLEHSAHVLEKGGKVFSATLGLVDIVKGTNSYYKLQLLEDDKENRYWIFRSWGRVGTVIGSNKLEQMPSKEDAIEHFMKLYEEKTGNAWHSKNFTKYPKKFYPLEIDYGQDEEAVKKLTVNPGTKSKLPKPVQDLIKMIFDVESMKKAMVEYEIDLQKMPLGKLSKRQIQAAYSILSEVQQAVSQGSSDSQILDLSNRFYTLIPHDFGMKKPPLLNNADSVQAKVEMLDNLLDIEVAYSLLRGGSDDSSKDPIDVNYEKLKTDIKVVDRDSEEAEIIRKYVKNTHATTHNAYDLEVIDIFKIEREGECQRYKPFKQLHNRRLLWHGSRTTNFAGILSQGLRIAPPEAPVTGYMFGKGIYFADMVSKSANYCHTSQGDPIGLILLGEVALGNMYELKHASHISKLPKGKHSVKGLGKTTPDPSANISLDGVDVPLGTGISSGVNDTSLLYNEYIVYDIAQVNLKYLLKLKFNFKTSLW

| SMILES | L = PARP inhibition (human PARP1) | ILS at 60 µM (C. elegans; [5]) [%] | ILS at 60 µM (C. elegans; [6]) [%] | ILS at 60 µM (C. elegans; [7]) [%] | ILS at 66 µM (C. elegans; [8]) [%] | ILS at 66 µM (C. elegans; [9]) [%] | ILS at 66 µM (C. elegans; [10]) [%] | O = Life span- extending scores in worms (C. elegans) | M = Lifespan-extending scores in worms (C. elegans) | B = MMS resistant (WI-38 cells [1]; [13]) | B = MMS resistant (WI-38 cells [1]; summary score) | D = Triple resistant (WI-38 cells [1]; summary score) | activity at 10 µM [2, 14] [%] | activity at 10 µM [2, 15] [%] | activity at 10 µM [2, 16] [%] | activity at 10 µM [2, 17] [%] | activity at 10 µM [2, 18] [%] | M = Huntington's poly-Q toxicity attenuation [3] | K = Huntington's poly-Q toxicity attenuation [3] | H2O2-resistant (WI-38 cells [4]; [19]) | other results |
| --- | --- | --- | --- | --- | --- | --- | --- | --- | --- | --- | --- | --- | --- | --- | --- | --- | --- | --- | --- | --- | --- |
| O=C(NCc1cccnc1)/C(=C/c1ccc(-c2ccc(Cl)cc2)o1)S(=O)(=O)c1ccccc1 [Gr-7C] | 0 | -29.1 | 10.1 | -41.6 | -29.1 | 10.1 | -41.6 | 0 | 0 | 0 | 0 | 0 | 132 | 135 | 82.9 | 196 | 369 | 1 | 1 | YES | fold induction at 10 µM (WI-38 cells [1]; [11]): 1.14; fold induction at 10 µM (WI-38 cells [1]; [12]): 1.39; P = Potential DNA-damaging ([2]; human, 24 h): 0; R = Potential DNA damaging ([2]; human, 24 h): 0; Viability of PC12 cells upon induction of toxic poly(Q)103-Htt-EGFP aggregates [3]: consistently increased the viability; Assay 20: Huntington's poly-Q toxicity attenuation [3]: YES; No H2O2 stress treatment, at 10 uM (fold change) (WI-38 cells [4]; WI-38 cells): 0.87 fold change; Assay 1: H2O2-resistant (WI-38 cells [4]): YES; H2O2-resistant (WI-38 cells [4]; [20]): YES; pEC50 (WI-38 cells [4]; [21]): 4.85; pEC50 (WI-38 cells [4]; [22]): 5.59 |
| COC(=O)CCc1sc2c(c1[N+](=O)[O-])NC(=O)CCC2 [O20] | 0 | 18.8 | 3.4 | 11.3 | 18.8 | 3.4 | 11.3 | 1 (1 for lifespan extension observed in 2 trials) | 1 (1 for lifespan extension observed in 2 trials) | 0 | 1 | 2 | 115 | 130 | 178 | 108 | 544 | 0 | 0 | YES | fold induction at 10 µM (WI-38 cells [1]; [11]): 2.17; fold induction at 10 µM (WI-38 cells [1]; [12]): 1.46; Assay 3: MMS-resistant (WI-38 cells [1]): YES; Assay 5: Triple resistant (WI-38 cells [1]): YES; P = Potential DNA-damaging ([2]; human, 24 h): 0; R = Potential DNA damaging ([2]; human, 24 h): 0; No H2O2 stress treatment, at 10 uM (fold change) (WI-38 cells [4]; WI-38 cells): 1.12 fold change; Assay 1: H2O2-resistant (WI-38 cells [4]): YES; H2O2-resistant (WI-38 cells [4]; [20]): YES; pEC50 (WI-38 cells [4]; [21]): 4.89; pEC50 (WI-38 cells [4]; [22]): 4.89 |
| COc1ccc(C(=O)/C=C/c2ccc(F)cc2)c(OC)c1 [Gr-4A] | 0 | -21.4 | 1.2 | -0.1 | -21.4 | 1.2 | -0.1 | 0 | 0 | 0 | 0 | 0 | 80.2 | 75 | 105 | 155 | 287 | 0 | 0 | YES | fold induction at 10 µM (WI-38 cells [1]; [11]): 0.95; fold induction at 10 µM (WI-38 cells [1]; [12]): 1.52; R = Potential DNA damaging ([2]; negative point, cultured human cells): 0; P = Potential DNA-damaging ([2]; summary score): 0; No H2O2 stress treatment, at 10 uM (fold change) (WI-38 cells [4]; WI-38 cells): 1.08 fold change; Assay 1: H2O2-resistant (WI-38 cells [4]): YES; H2O2-resistant (WI-38 cells [4]; [20]): YES; pEC50 (WI-38 cells [4]; [21]): 5.04; pEC50 (WI-38 cells [4]; [22]): 5.30 |
| CCc1ccc(Oc2nc3ccccn3c(=O)c2/C=C(\C#N)C(=O)NC2CCCCC2)cc1 [Gr-5A] | 0 | 25.8 | -1.4 | -8.3 | 25.8 | -1.4 | -8.3 | 0 | 0 | 0 | 0 | 0 | 105 | 115 | 127 | 147 | 548 | 0 | 0 | YES | fold induction at 10 µM (WI-38 cells [1]; [11]): 0.83; fold induction at 10 µM (WI-38 cells [1]; [12]): 1.49; P = Potential DNA-damaging ([2]; human, 24 h): 0; R = Potential DNA damaging ([2]; human, 24 h): 0; No H2O2 stress treatment, at 10 uM (fold change) (WI-38 cells [4]; WI-38 cells): 1.14 fold change; H2O2-resistant (WI-38 cells [4]; [20]): YES; pEC50 (WI-38 cells [4]; [22]): 4.99 |
| NS(=O)(=O)c1ccc(NC(=O)c2ccc([N+](=O)[O-])o2)cc1 [Gr-1A] | 0 | -1.3 | 0.2 | 14.2 | -1.3 | 0.2 | 14.2 | 0 | 0 | 0 | 1 | 2 | 196 | 223 | 179 | 411 | 653 | 1 | 1 | YES | fold induction at 10 µM (WI-38 cells [1]; [11]): 0.72; fold induction at 10 µM (WI-38 cells [1]; [12]): 2.42; Assay 3: MMS-resistant (WI-38 cells [1]): YES; Assay 5: Triple resistant (WI-38 cells [1]): YES; P = Potential DNA-damaging ([2]; human, 24 h): 1; R = Potential DNA damaging ([2]; human, 24 h): 1; Viability of PC12 cells upon induction of toxic poly(Q)103-Htt-EGFP aggregates [3]: consistently increased the viability; Assay 20: Huntington's poly-Q toxicity attenuation [3]: YES; No H2O2 stress treatment, at 10 uM (fold change) (WI-38 cells [4]; WI-38 cells): 0.72 fold change; Assay 1: H2O2-resistant (WI-38 cells [4]): YES; H2O2-resistant (WI-38 cells [4]; [20]): YES; pEC50 (WI-38 cells [4]; [21]): 5.22; pEC50 (WI-38 cells [4]; [22]): 5.60 |
| N=C1S/C(=C\c2cn(-c3ccccc3)nc2-c2cccs2)C(=O)N1c1nccs1 [Gr-6C] | 0 | 20.5 | 12.4 | 9.4 | 20.5 | 12.4 | 9.4 | 2 (2 for observed in more than 2 trials) | 2 (2 for observed in more than 2 trials) | 0 | 0 | 0 | 181 | 300 | 43 | 290 | 440 | 0 | 0 | YES (*) | Extension of C. elegans' lifespan (qualitative) (C. elegans; in at least 3 to 4 trials, group range ~10% to ~50%): could extend animal's lifespan; Trials with lifespan extension (C. elegans; positive of total trials): 3 of 3; P = Potential DNA-damaging ([2]; human, 24 h): 1; R = Potential DNA damaging ([2]; human, 24 h): 1; No H2O2 stress treatment, at 10 uM (fold change) (WI-38 cells [4]; WI-38 cells): .096 fold change; H2O2-resistant (WI-38 cells [4]; [20]): YES (*); pEC50 (WI-38 cells [4]; [21]): 4.79; pEC50 (WI-38 cells [4]; [22]): 4.31 |
